Where a name gives a salt, the structure may show the parent alone.
Legend:
Details in all cases: HepG2, doxorubicin HCl 25 nM, standard 11
abcG8 = test: DT1 microarray drug screening, drug-treated HepG2: abcG8; assay type: cell-based, human
Protocol: (§1) The labelled cDNA target preparation was thawed and the 150 μl added to 850 ul hybridisation buffer (500 mM sodium Phosphate pH 6.0, 1% SDS, 1% BSA, 1 mM EDTA) in a 1.5 ml microtube and heated at 95° C. for 10 min.

abcC1 = test: DT1 microarray drug screening, drug-treated HepG2: abcC1
abcD4 = test: DT1 microarray drug screening, drug-treated HepG2: abcD4; assay type: cell-based, human
Protocol: as §1

abcA6 = test: DT1 microarray drug screening, drug-treated HepG2: abcA6; assay type: cell-based, human
Protocol: as §1

abcC12 = test: DT1 microarray drug screening, drug-treated HepG2: abcC12; assay type: cell-based, human
Protocol: as §1

abcF2 = test: DT1 microarray drug screening, drug-treated HepG2: abcF2; assay type: cell-based, human
Protocol: as §1

abcD1 = test: DT1 microarray drug screening, drug-treated HepG2: abcD1; assay type: cell-based, human
Protocol: as §1

abcB8 = test: DT1 microarray drug screening, drug-treated HepG2: abcB8; assay type: cell-based, human
Protocol: as §1

abcA5 = test: DT1 microarray drug screening, drug-treated HepG2: abcA5; assay type: cell-based, human
Protocol: as §1

abcC2 = test: DT1 microarray drug screening, drug-treated HepG2: abcC2; assay type: cell-based, human
Protocol: as §1

abcG5 = test: DT1 microarray drug screening, drug-treated HepG2: abcG5; assay type: cell-based, human
Protocol: as §1

abcE1 = test: DT1 microarray drug screening, drug-treated HepG2: abcE1; assay type: cell-based, human
Protocol: as §1

abcA7 = test: DT1 microarray drug screening, drug-treated HepG2: abcA7; assay type: cell-based, human
Protocol: as §1

abcC9 = test: DT1 microarray drug screening, drug-treated HepG2: abcC9; assay type: cell-based, human
Protocol: as §1

abcC5 = test: DT1 microarray drug screening, drug-treated HepG2: abcC5; assay type: cell-based, human
Protocol: as §1

abcB9 = test: DT1 microarray drug screening, drug-treated HepG2: abcB9; assay type: cell-based, human
Protocol: as §1

abcC4 = test: DT1 microarray drug screening, drug-treated HepG2: abcC4; assay type: cell-based, human
Protocol: as §1

abcG2 = test: DT1 microarray drug screening, drug-treated HepG2: abcG2; assay type: cell-based, human
Protocol: as §1

abcA3 = test: DT1 microarray drug screening, drug-treated HepG2: abcA3; assay type: cell-based, human
Protocol: as §1

abcA4 = test: DT1 microarray drug screening, drug-treated HepG2: abcA4; assay type: cell-based, human
Protocol: as §1

abcF1 = test: DT1 microarray drug screening, drug-treated HepG2: abcF1; assay type: cell-based, human
Protocol: as §1

abcD2 = test: DT1 microarray drug screening, drug-treated HepG2: abcD2; assay type: cell-based, human
Protocol: as §1

abcA12 = test: DT1 microarray drug screening, drug-treated HepG2: abcA12; assay type: cell-based, human
Protocol: as §1

abcG1 = test: DT1 microarray drug screening, drug-treated HepG2: abcG1; assay type: cell-based, human
Protocol: as §1

COc1cccc2c1C(=O)c1c(O)c3c(c(O)c1C2=O)C[C@@](O)(C(=O)CO)C[C@@H]3O[C@H]1C[C@H](N)[C@H](O)[C@H](C)O1 [dox, doxorubicin HCl]
relative level of abcG8 gene expression (abcG8; 4 h): 2.811 | relative level of abcG8 gene expression (abcG8; 8 h): 2.9413 | relative level of abcC1 gene expression (abcC1; 2 h): 7.005 | relative level of abcC1 gene expression (abcC1; 4 h): 4.767 | relative level of abcC1 gene expression (abcC1; 8 h): 5.056 | relative level of abcD4 gene expression (abcD4; 2 h): 4.361 | relative level of abcD4 gene expression (abcD4; 4 h): 3.103 | relative level of abcD4 gene expression (abcD4; 8 h): 3.194 | relative level of abcA6 gene expression (abcA6; 2 h): 6.045 | relative level of abcA6 gene expression (abcA6; 4 h): 3.367 | relative level of abcA6 gene expression (abcA6; 8 h): 4.296 | relative level of abcC12 gene expression (abcC12; 2 h): 5.226 | relative level of abcC12 gene expression (abcC12; 4 h): 3.532 | relative level of abcC12 gene expression (abcC12; 8 h): 3.976 | relative level of abcF2 gene expression (abcF2; 2 h): 5.979 | relative level of abcF2 gene expression (abcF2; 4 h): 4.068 | relative level of abcF2 gene expression (abcF2; 8 h): 4.807 | relative level of abcD1 gene expression (abcD1; 2 h): 4.477 | relative level of abcD1 gene expression (abcD1; 4 h): 3.386 | relative level of abcD1 gene expression (abcD1; 8 h): 3.516 | relative level of abcB8 gene expression (abcB8; 2 h): 8.004 | relative level of abcB8 gene expression (abcB8; 4 h): 5.438 | relative level of abcB8 gene expression (abcB8; 8 h): 5.353 | relative level of abcA5 gene expression (abcA5; 2 h): 3.302 | relative level of abcA5 gene expression (abcA5; 4 h): 2.021 | relative level of abcA5 gene expression (abcA5; 8 h): 2.451 | relative level of abcC2 gene expression (abcC2; 2 h): 0.6141 | relative level of abcC2 gene expression (abcC2; 4 h): 0.3603 | relative level of abcC2 gene expression (abcC2; 8 h): 0.3548 | relative level of abcG5 gene expression (abcG5; 2 h): 2.201 | relative level of abcG5 gene expression (abcG5; 4 h): 1.764 | relative level of abcG5 gene expression (abcG5; 8 h): 1.752 | relative level of abcE1 gene expression (abcE1; 2 h): 4.155 | relative level of abcE1 gene expression (abcE1; 4 h): 2.794 | relative level of abcE1 gene expression (abcE1; 8 h): 3.088 | relative level of abcA7 gene expression (abcA7; 2 h): 1.842 | relative level of abcA7 gene expression (abcA7; 4 h): 0.933 | relative level of abcA7 gene expression (abcA7; 8 h): 0.9351 | relative level of abcC9 gene expression (abcC9; 2 h): 5.598 | relative level of abcC9 gene expression (abcC9; 4 h): 3.678 | relative level of abcC9 gene expression (abcC9; 8 h): 3.982 | relative level of abcC5 gene expression (abcC5; 2 h): 10.51 | relative level of abcC5 gene expression (abcC5; 4 h): 6.29 | relative level of abcC5 gene expression (abcC5; 8 h): 6.522 | relative level of abcB9 gene expression (abcB9; 2 h): 8.388 | relative level of abcB9 gene expression (abcB9; 4 h): 4.897 | relative level of abcB9 gene expression (abcB9; 8 h): 5.523 | relative level of abcC4 gene expression (abcC4; 2 h): 2.612 | relative level of abcC4 gene expression (abcC4; 4 h): 2.09 | relative level of abcC4 gene expression (abcC4; 8 h): 2.286 | relative level of abcG2 gene expression (abcG2; 2 h): 2.989 | relative level of abcG2 gene expression (abcG2; 4 h): 2.137 | relative level of abcG2 gene expression (abcG2; 8 h): 2.08 | relative level of abcA3 gene expression (abcA3; 2 h): 8.071 | relative level of abcA3 gene expression (abcA3; 4 h): 4.291 | relative level of abcA3 gene expression (abcA3; 8 h): 5.179 | relative level of abcA4 gene expression (abcA4; 2 h): 8.765 | relative level of abcA4 gene expression (abcA4; 4 h): 4.535 | relative level of abcA4 gene expression (abcA4; 8 h): 6.099 | relative level of abcF1 gene expression (abcF1; 2 h): 2.485 | relative level of abcF1 gene expression (abcF1; 4 h): 2.87 | relative level of abcF1 gene expression (abcF1; 8 h): 2.662 | relative level of abcD2 gene expression (abcD2; 2 h): 2.503 | relative level of abcD2 gene expression (abcD2; 4 h): 2.516 | relative level of abcD2 gene expression (abcD2; 8 h): 2.409 | relative level of abcA12 gene expression (abcA12; 2 h): 5.829 | relative level of abcA12 gene expression (abcA12; 4 h): 3.419 | relative level of abcA12 gene expression (abcA12; 8 h): 4.195 | relative level of abcG1 gene expression (abcG1; 2 h): 5.472 | relative level of abcG1 gene expression (abcG1; 4 h): 3.555 | relative level of abcG1 gene expression (abcG1; 8 h): 3.839

Source: US20070026408A1, “Materials and methods for analysis of atp-binding cassette transporter gene expression” (priority 2003, published 2007)
